Among the data in PubChem BioAssay (NCI) are GI50 and TGI values, retold here.

Assay in all cases: inhibition of tumour cell growth, NCI panel, 48 h
The test system of assay [1] is PC-3 prostate.
Assay [2] has as its system SF-295 CNS.
Assay [3] concerns CCRF-CEM leukemia.
For assay [4], the system named is HOP-92 NSCLC.
The test system of assay [5] is NCI-H23 lung.
In assay [6] the test system is SW-620 colon.
Assay [7] deals with A549 NSCLC.
Assay [8] has as its system UACC-257 melanoma.

“And” between values parts separate entries of the source, which are not always exact repeats. Identical values can stand only once.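 Assay format: 96-well plates, 48-hour exposure. Abbreviation: GI50, concentration required for 50% inhibition of growth. TGI: concentration producing complete growth inhibition.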

On to `Nc1nnc2cc(Cl)ccc2n1`, for which the GI50 is 24.4 µM in assay [1]; 74 µM in assay [2]; more than 100 µM in assay [3]; 3.56 µM in assay [4]; more than 100 µM in assay [5]; more than 100 µM in assay [6]. In addition, the GI50 in assay [7] was 73.2 µM; in assay [8], more than 100 µM. For the same compound, the TGI was more than 100 µM in assay [1]; more than 100 µM in assay [2]; more than 100 µM in assay [3]; 47.6 µM in assay [4]; more than 100 µM in assay [5]; more than 100 µM in assay [6]. The TGI in assay [7] and in assay [8] was more than 100 µM throughout.
Consider `COCCOC(=O)NC(=O)Nc1ccc(/C(=N/O)c2ccc(Cl)cc2)cc1`, for which the GI50 in assay [1] was 0.141 µM; in assay [2] it was 0.123 µM; in assay [3], 0.0989 µM; in assay [4], 1.4 µM; in assay [5] it was 0.221 µM; in assay [6], 0.109 µM. Also, the GI50 is 0.284 µM in assay [7] and 13 µM in assay [8]. The TGI was 64.2 µM in assay [1]; 0.559 µM in assay [2]; 28.1 µM in assay [3]; 44.1 µM in assay [4]; 51.4 µM in assay [5]; more than 100 µM in assay [6]. In addition, the TGI is more than 85.3 µM in assay [7] and 48.9 µM in assay [8].
In the case of `Cc1cc(C)c(C[N+](C)(C)C)c(C)c1C`, the GI50 was 0.351 µM in assay [1]; 0.255 µM in assay [2]; 0.201 µM in assay [3]; 0.285 µM in assay [4]; 0.395 µM in assay [5]; 0.32 µM in assay [6]. Further, the GI50 in assay [7] is 0.281 µM; in assay [8] it was 0.465 µM. The TGI is more than 67.2 µM in assay [1]; 7.25 µM in assay [2]; more than 67.5 µM in assay [3]; 13.5 µM in assay [4]; 12.3 µM in assay [5]; more than 100 µM in assay [6]. Besides, the TGI in assay [7] came to 39.1 µM; in assay [8], 6.69 µM.
Regarding `CCOC(=O)c1[nH]c(-c2ccc(Cl)cc2)cc1-c1cccnc1`, the GI50 in assay [1] is 0.325 µM; in assay [2], 0.453 µM; in assay [3], 0.391 µM; in assay [4], 0.572 µM; in assay [5], 2.33 µM; in assay [6] it was 2.87 µM. The GI50 in assay [7] was 0.812 µM; in assay [8], more than 100 µM. For the same compound, the TGI in assay [1] was more than 100 µM; in assay [2], more than 100 µM; in assay [3], more than 100 µM; in assay [4], 84.7 µM; in assay [5] it was more than 100 µM; in assay [6], more than 100 µM. Moreover, the TGI in assay [7] and in assay [8] was more than 100 µM each time.
On to `COc1cc2c3c(n(CCCNCCN)c(=O)c2cc1OC)-c1cc2c(cc1C3=O)OCO2`, for which the GI50 in assay [1] was 2.13 µM; in assay [2], 1.24 µM; in assay [3], less than 0.0105 µM; in assay [4], 2.31 µM; in assay [5] it was 0.242 µM; in assay [6], 0.377 µM. The GI50 in assay [7] is 1.61 µM; in assay [8], 1.95 µM. Moreover, the TGI came out at 14.9 µM in assay [1]; 20.3 µM in assay [2]; 0.339 µM in assay [3]; 15.6 µM in assay [4]; 1.14 µM in assay [5]; 3.9 µM in assay [6]. The figures for the TGI in assay [7] and in assay [8] were 13.7 µM and 14.1 µM, respectively.
For the compound `COC1CC2C=C(C)/C=C/C=C/C(=O)NC(c3ccccc3)C/C=C/CCC(O)CC(=O)C2=C1O` (stereo unspecified), the GI50 in assay [1] is 0.289 µM; in assay [2], 0.246 µM; in assay [3] it was 0.284 µM; in assay [4], 0.141 µM; in assay [5], 0.24 µM; in assay [6] it was 0.31 µM. For the same compound, the GI50 in assay [7] was 0.241 µM; in assay [8], 0.186 µM. The TGI worked out at 1.16 µM in assay [1]; 0.788 µM in assay [2]; 1.3 µM in assay [3]; 0.457 µM in assay [4]; 1.11 µM in assay [5]; 1.36 µM in assay [6]. The TGI was determined as 1.15 µM in assay [7] and 0.577 µM in assay [8].
On to `CC[C@@]1(O)C(=O)NCc2c1cc1n(c2=O)Cc2cc3c(N)cccc3nc2-1`, for which the GI50 in assay [1] was 9.99 µM; in assay [2] it was 1.01 µM; in assay [3], 0.185 µM; in assay [4] it was 8.64 µM; in assay [5] it was 0.942 µM; in assay [6], 4.16 µM. The figures for the GI50 in assay [7] and in assay [8] were 2.5 µM and 6.15 µM, respectively. The TGI was more than 55.4 µM in assay [1]; more than 46.8 µM in assay [2]; more than 19.5 µM in assay [3]; more than 84.1 µM in assay [4]; 15.1 µM in assay [5]; more than 100 µM in assay [6]. In addition, the TGI in assay [7] was more than 69 µM; in assay [8], more than 79.5 µM.
Take `C[C@]1(CO)[C@H]2CC[C@@]34C=C[C@@](CO)(CC[C@H]3[C@]2(C)CC[C@H]1O)C4`: the TGI in assay [1], in assay [2], in assay [3], in assay [4], in assay [5] and in assay [6] was more than 100 µM in each case. Further, the TGI in assay [7] and in assay [8] was more than 100 µM each time.
Take `CCOC(=O)C(Cc1c[nH]c2ccc(N(CCCl)CCCl)cc12)(NC(C)=O)C(=O)OCC`: the GI50 is 3.84 µM and 18.5 µM in assay [1]; 5.41 µM and 4.2 µM in assay [2]; 1.33 µM and 1.47 µM in assay [3]; 14.1 µM in assay [4]; 5.99 µM and 9.89 µM in assay [5]; 8.78 µM and 13.2 µM in assay [6]. Also, the GI50 in assay [7] is 1.8 µM and 1.04 µM; in assay [8], 17.6 µM and 23.9 µM. Moreover, the TGI in assay [1] was 48.1 µM and 332 µM; in assay [2], 32 µM and 232 µM; in assay [3] it was 5.21 µM and 19.9 µM; in assay [4], 250 µM; in assay [5], 31.2 µM and 64.8 µM; in assay [6], 93.6 µM and 46.8 µM. For the same compound, the TGI in assay [7] was 25.1 µM and 63.9 µM; in assay [8] it was 52.6 µM and 94 µM.
